Measurements from patent publication US11505797B2, “Gene knockout of variant NRF2 for treatment of cancer” (Christiana Care Health Services, Inc., priority 2019, dated 2022).
Where “and” joins values, the source holds several entries; their conditions need not be identical. Identical values can stand only once. Entries after “also recorded” stand apart in the source; their conditions may differ.

Legend:
[1] = test system: wildtype NRF2 gene in A549 parental cells; test: TIDE analysis after transfection of R34G-targeting RNP, A549 parental cells; assay type: cell-based, human
Protocol: (§1) The in vitro cleavage reactions were further assessed through cell based-experiments using the same cell lines: A549 and H1703 parental cell lines and the A549 R34G-6 cell line. The cell lines were cultured under the standard conditions and transfected by electroporation (Lonza, Nucleofection) using previously established parameters. FIGS. 27-29 depict the genetic analysis of eight separate experiments using all three cell lines after transfection of the R34G-targeting RNP. This experiment was conducted under three different conditions. The first condition was using an equimolar concentration of duplexed guide RNA to Cas9. The second condition was using five times the amount of duplexed guide RNA to Cas9, along with using a GFP (Green Fluorescent Protein) expression vector to measure transfection efficiency and to sort the GFP-positive population for further analysis. The third condition was using five times the amount of single guide RNA to Cas9, along with the GFP expression vector and sorting of the GFP-positive population for further analysis.
FIG. 27 depicts the genetic analysis after transfection of the R34G-targeting RNP in the A549 parental cells. The A549 parental cells contain a wildtype NRF2 gene therefore there is no native CRISPR/Cas9 recognition site for the R34G-targeting RNP. […]

[2] = test system: wildtype NRF2 sequence; test: In vitro cleavage reaction, wildtype NRF2 amplicons; assay type: biochemical, human; settings: A549 or H1703 parental amplicons, 0.5-5 pmol RNP, gel electrophoresis
Protocol: (§2) As proof of concept, an in vitro cleavage reaction was conducted to assess the level of discrimination using the R34G guide RNA in a ribonucleoprotein complex (RNP). The in vitro cleavage reaction encompasses complexing target specific-guide RNA with Cas9 protein to form a ribonucleoprotein (RNP). The RNP is incubated with DNA of interest (100 ng) and the reaction and cleavage products are visualized by gel electrophoresis. For this experiment, wildtype and R34G-mutated NRF2 PCR products (901 bp) from an NRF2 expression plasmid (FIG. 21) were incubated with R34G-targeting RNP complex (1 μM) and cleavage products were visualized by gel electrophoresis, shown in FIG. 22.
Once the sequences were verified, genomic DNA from each cell line was used to amplify exon 2 of NRF2. The PCR products (530 bp) from each cell line were then used in in vitro cleavage reactions under various parameters to test specificity and fidelity of the R34G-targeting RNP. For these cleavage reactions, expected cleavage products would appear at 385 and 145 bp as indicated by the red lines along the ladder, with uncut product appearing at 530 bp. FIG. 24 depicts the gel image from an in vitro cleavage reaction using wildtype NRF2 sequence from parental A549 cells and R34G-mutated NRF2 sequence from the A549 R34G-6 cells. […]

[3] = test system: R34G-mutated NRF2 sequence; test: In vitro cleavage reaction, R34G-mutated NRF2 amplicons; assay type: biochemical, human; settings: gel electrophoresis; for cleavage specificity, NRF2 expression plasmid and 901 bp amplicons: wildtype versus R34G NRF2, RNP 1 μM, DNA 100 ng
Protocol: as §2
Once the sequences were verified, genomic DNA from each cell line was used to amplify exon 2 of NRF2. The PCR products (530 bp) from each cell line were then used in in vitro cleavage reactions under various parameters to test specificity and fidelity of the R34G-targeting RNP. For these cleavage reactions, expected cleavage products would appear at 385 and 145 bp as indicated by the red lines along the ladder, with uncut product appearing at 530 bp. FIG. 24 depicts the gel image from an in vitro cleavage reaction using wildtype NRF2 sequence from parental A549 cells and R34G-mutated NRF2 sequence from the A549 R34G-6 cells. An increasing concentration (0.5-5 pmol) of R34G-targeting RNP was used to determine the threshold and fidelity of the sequence. […] Uncut product (top band, 530 bp) can still be seen in lanes 7-10, which corresponds to the heterozygosity of the R34G mutation in the A549 R34G-6 cell line. Therefore, the wildtype NRF2 allele in the A549 R34G-6 cell line acts as an internal negative control.
Another in vitro cleavage reaction was conducted to assess the cleavage efficiency of the wildtype NRF2 sequence to ensure the R34G-targeting RNP was, in fact, not cleaving the wildtype NRF2 sequence because of the lack of the R34G mutation. A guide RNA with a cut site 29 bp upstream (labeled Neh2 RNP) from the R34G RNP cut site was selected and used as a positive cleavage control. […] Lanes 1-8 were reactions using wildtype NRF2 sequence while lanes 9-16 were reactions using R34G-mutated NRF2 sequence. In lanes 2-4 and 10-12, PCR products were incubated with increasing concentrations (1, 3 & 5 pmol) of RNP targeting the beginning of exon 2 (Neh2 RNP). The Neh2 guide RNA sequence is: 5′ […] 3′ (SEQ ID NO:13) which is a native CRISPR site and used as the positive control for cleavage for these reactions. […] In lanes 6-8 and 14-16, PCR products were incubated with increasing concentrations (1, 3 & 5 pmol) of R34G-targeting RNP. […] This further reinforces the specificity of the R34G-targeting RNP only recognizing the target DNA in the presence of the R34G mutation in exon 2 of NRF2. […]

[4] = test system: R34G-mutated NRF2 gene in A549 R34G-6 cells; test: TIDE analysis after transfection of R34G-targeting RNP, A549 R34G-6 cells; assay type: cell-based, human; settings: GFP-positive sorted population
Protocol: as §1
FIG. 28 depicts the genetic analysis after transfection of the R34G-targeting RNP in the A549 R34G-mutated clonal cell line (A549 R34G-6). The A549 R34G-6 cells contain a heterozygous R34G mutation in exon 2 of the NRF2 gene, creating a new CRISPR recognition site for the R34G-targeting RNP. […] The significant total indel efficiency indicates the R34G-targeting RNP is very active. […] The lower R2 value indicates some of the sequence analysis is unaccounted for likely because of sequence quality. […] Although only a speculation, the R34G-targeting RNP does differentiate between the wildtype and R34G-mutated alleles within the clonal cell line.

[5] = test system: wildtype NRF2 gene in NCI-H1703 cell line; test: TIDE analysis after transfection of R34G-targeting RNP, H1703 parental cells; assay type: cell-based, human
Protocol: as §1
FIG. 29 depicts the genetic analysis after transfection of the R34G-targeting RNP in the NCI-H1703 cell line, which contains a wildtype NRF2 gene and no native CRISPR recognition site.

[6] = top panel, bulk unsorted population

“5′ GATATAGATCTTGGAGTAAGTGG 3′ [R34G-targeting RNP]” was tested, and the total indel efficiency ([1]; bottom panel, GFP-positive sorted population) was 11.4% and 11.3%, the total indel efficiency [1, 6] was 11.8% and 11.4% and the “cleavage of wildtype NRF2 amplicon (530 bp)” value [2] was “does not result in cleavage of wildtype NRF2 sequence; also recorded: minimal cleavage seen in lanes 6-8”. For the same substance, the “cleavage of R34G-mutated NRF2 amplicon (530 bp)” value ([3]; A549 R34G-6 amplicon, 0.5-5 pmol RNP) was “cleavage products can be seen even with half of the standard concentration; also recorded: clearly seen”, the “cleavage specificity, NRF2 expression plasmid and 901 bp amplicons” value [3] was “only recognizes and cleaves the mutated DNA sequence” and the “cleavage specificity, NRF2 expression plasmid and 901 bp amplicons” value ([3]; listed as R34G RNP) was “only recognizes and cleaves with the mutation present”. For the same substance, the total indel efficiency ([4]; bottom panel) was 32.7%, the “sequence analyzed that is wildtype” value ([4]; middle panel) was 32.0% and the total indel efficiency ([4]; middle panel) was 55.7%. For the same substance, the total indel efficiency ([5]; bottom panel, GFP-sorted population) was 4.6% and the total indel efficiency [5, 6] was 0.0%.
